Experimental data reported in the supplement of paper PMC10307832.

Columns and labels:
Test in all cases: relative viability (nuclei count vs DMSO), 5 days (fraction); higher = more cells survive
[1] = compound: C1=CC2=C(C=CC(=C2)C=C3C(=O)NC(=NCC4=CC=CS4)S3)N=C1 [RO-3306] + O=C(c1cc(Cc2n[nH]c(=O)c3ccccc23)ccc1F)N1CCN(C(=O)C2CC2)CC1 [Olaparib] (partner 8 µM)
Outline: (§1)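 Lung cancer cell lines in 1536-well plates were dosed by pin tool the day after seeding, either with one drug alone or with a fixed anchor-drug dose plus five library-drug doses (not always all listed) in √10 steps. After 5 days, cells were fixed and their nuclei stained in one step (final 0.05% Triton X-100, 1% formaldehyde, 1 ug/ml Hoechst), then counted on 4× images. Relative viability is the nuclei count in treated wells divided by that in vehicle wells. Values are medians of duplicate plates.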

[2] = compound: C1=CC2=C(C=CC(=C2)C=C3C(=O)NC(=NCC4=CC=CS4)S3)N=C1 [RO-3306] + CC(=O)Nc1cccc(-n2c(=O)n(C3CC3)c(=O)c3c(Nc4ccc(I)cc4F)n(C)c(=O)c(C)c32)c1 [Trametinib] (partner 0.02 µM)
Outline: as §1

[3] = compound: O=S(=O)(c1ccccc1)N(CC(F)(F)F)c1ccc(C(O)(C(F)(F)F)C(F)(F)F)cc1 + CS(=O)(=O)CCNCc1ccc(-c2ccc3ncnc(Nc4ccc(OCc5cccc(F)c5)c(Cl)c4)c3c2)o1 [Lapatinib] (partner 2 µM)
Outline: as §1

[4] = compound: O=S(=O)(c1ccccc1)N(CC(F)(F)F)c1ccc(C(O)(C(F)(F)F)C(F)(F)F)cc1 + Nc1ncn([C@H]2C[C@H](O)[C@@H](CO)O2)c(=O)n1 [Decitabine] (partner 2 µM)
Outline: as §1

Cell Line	relative viability ([1]; first compound 0.01 µM)	relative viability ([1]; first compound 0.1 µM)	relative viability ([1]; first compound 0.3162 µM)	relative viability ([1]; first compound 1 µM)	relative viability ([2]; first compound 0.01 µM)	relative viability ([2]; first compound 0.1 µM)	relative viability ([2]; first compound 0.3162 µM)	relative viability ([2]; first compound 1 µM)	relative viability ([3]; first compound 0.8 µM)	relative viability ([3]; first compound 2.53 µM)	relative viability ([3]; first compound 8 µM)	relative viability ([4]; first compound 0.8 µM)	relative viability ([4]; first compound 2.53 µM)	relative viability ([4]; first compound 8 µM)	relative viability ([1]; first compound 0.03162 µM)	relative viability ([2]; first compound 0.03162 µM)
NCI-H1793	0.686	0.789	0.893	0.954	0.479	0.408	0.43	0.513	0.675	0.471	0.522	0.262	0.384	0.4		
NCI-H1915	0.276	0.263	0.246	0.255	0.319	0.297	0.32	0.292	1.05	0.995	1.02	0.287	0.281	0.29	0.235	0.276
NCI-H1944	0.443	0.346	0.414	0.433	0.387	0.428	0.445	0.41	0.897	0.856	0.951	0.461	0.456	0.483	0.439	0.403
NCI-H1975	1.07	0.835	0.918	0.953	0.348	0.309	0.33	0.331	1.32	0.99	1.01	0.453	0.545	0.472	0.711	0.319
NCI-H1993	0.993	1.02	0.995	0.415	0.506	0.6	0.533	0.439	0.813	0.613	0.849	0.515	0.563	0.579	0.878	0.546
NCI-H2009	0.789	0.694	0.796	0.727	0.283	0.247	0.273	0.254	0.922	0.804	0.844	0.366	0.372	0.369	0.684	0.272
NCI-H2023	0.469	0.422	0.463	0.379	0.554	0.444	0.509	0.529	0.742	0.743	0.55	0.221	0.233	0.221	0.437	0.442
NCI-H2085	0.699	0.811	0.714	0.757	0.509	0.527	0.613	0.595	0.759	0.677	0.65	0.508	0.539	0.501	0.685	0.632
NCI-H2087	0.626	0.671	0.723	0.656	0.176	0.188	0.234	0.202	0.922	0.988	0.994	0.305	0.327	0.301	0.476	0.193
NCI-H2126	0.945	0.902	0.9	0.932	0.555	0.577	0.584	0.476	0.868	0.791	0.905	0.655	0.573	0.533	0.901	0.488
NCI-H2170	0.658	0.631	0.546	0.509	1.18	0.886	0.96	0.958	0.276	0.299	0.288	0.496	0.439	0.475	0.589	0.792
NCI-H2347	0.598	0.565	0.464	0.594	0.283	0.262	0.264	0.274	1.02	1.03	0.963	0.657	0.614	0.66	0.596	0.271
NCI-H2405	0.844	0.887	0.899	0.732	0.637	0.636	0.63	0.613	1.01	0.962	1.15	0.841	0.701	0.797	0.863	0.557
NCI-H3122	0.707	0.604	0.61	0.604	0.241	0.26	0.237	0.227	0.975	0.897	1.03	0.301	0.385	0.421	0.561	0.223
PC-3 [JPC-3]	1.21	1.11	1.17	1.12	0.715	0.704	0.694	0.65	0.482	0.421	0.452		0.817	0.826	1.07	0.697
PC-14	0.298	0.235	0.227	0.237	0.827	0.614	0.78	0.766	0.26	0.191	0.223	0.197	0.19	0.209	0.232	0.607
RERF-LC-KJ	0.888	0.837	0.835	1.08	0.914	0.862	0.881	0.935	0.828	0.715	0.693	0.752	0.701	0.687	0.902	0.907
SK-LU-1	0.425	0.458	0.663	0.425	0.463	0.501	0.506	0.309	0.903	1.02	0.753	0.669	0.63	0.703	0.415	0.412
SK-MES-1	0.805	0.601	0.677	0.665	0.519	0.483	0.491	0.562	0.442	0.424	0.514	0.375	0.337	0.366	0.671	0.537
SW 1573	0.492	0.432	0.444	0.442	0.636	0.539	0.604	0.573	1.18	1.2	1.06	0.542	0.543	0.541	0.483	0.428
